For 1 molecule, Kd results are on record in paper PMC6816037 (Computational and Structural Biotechnology Journal, 2019).

The target in the assay is XIAP-BIR3 (Homo sapiens, UniProt P98170). The assay can be described thus: surface plasmon resonance. Type of assay: binding.
XIAP-BIR3, sequence (P98170 241-356 limits assumed): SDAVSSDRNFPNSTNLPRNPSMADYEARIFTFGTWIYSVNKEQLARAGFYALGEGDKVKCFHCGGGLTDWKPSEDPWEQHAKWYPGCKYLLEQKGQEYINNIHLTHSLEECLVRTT

For `C[C@@H]1O[C@@H](O[C@H]2[C@H](Oc3cc(O)c4c(c3)O[C@H](c3ccc(O)c(O)c3)CC4=O)O[C@H](CO)[C@@H](O)[C@@H]2O)[C@H](O)[C@H](O)[C@H]1O` [compound 10, neoeriocitrin], the dissociation constant (Kd) amounted to 13.3 µM. This lies in the double-digit micromolar range.

The term Kd denotes the constant that tells how readily two partners part at equilibrium. High values mean a looser complex, low ones a tighter complex.
